From US20180371044A1, “PEPTIDOMIMETIC MACROCYCLES” (Aileron Therapeutics, Inc., priority 2015, published 2018)
Where a SMILES comes first, the peptide text is derived from it. Bridges are numbered along the chain shown (N, C = ends). [ ]: non-standard residue; d: D form. NMeY = CN[C@@H](Cc1ccc(O)cc1)C(=O)O; S5 = C=CCCC[C@](C)(N)C(=O)O; Nle = CCCC[C@H](N)C(=O)O

How the values were obtained:
Plasma compatibility = assay type: physicochemical
Protocol: The plasma compatibility of exemplary peptidomimetic macrocycles was also determined. Peptidomimetic macrocycles with a plasma compatability value (PC) that is greater than 0.1 were determined as being plasma compatible.

[1] = biological target: T1, human GHRH receptor (hGHRHR) (Homo sapiens, UniProt Q02643); assay: GHRHR agonism measured by cAMP (HTRF) in human 293 cells expressing hGHRHR; assay type: cell-based; details: 30 min at RT;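 note: receptor expressed transiently or stably, cells stimulated in serum-free medium, EC50 from a non-linear dose-response fit, maximal response defined by reference GHRH stimulation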
T1 construct: expressed in transfected cells; host or cells: Human 293 cells
T1 sequence (Q02643 23-423): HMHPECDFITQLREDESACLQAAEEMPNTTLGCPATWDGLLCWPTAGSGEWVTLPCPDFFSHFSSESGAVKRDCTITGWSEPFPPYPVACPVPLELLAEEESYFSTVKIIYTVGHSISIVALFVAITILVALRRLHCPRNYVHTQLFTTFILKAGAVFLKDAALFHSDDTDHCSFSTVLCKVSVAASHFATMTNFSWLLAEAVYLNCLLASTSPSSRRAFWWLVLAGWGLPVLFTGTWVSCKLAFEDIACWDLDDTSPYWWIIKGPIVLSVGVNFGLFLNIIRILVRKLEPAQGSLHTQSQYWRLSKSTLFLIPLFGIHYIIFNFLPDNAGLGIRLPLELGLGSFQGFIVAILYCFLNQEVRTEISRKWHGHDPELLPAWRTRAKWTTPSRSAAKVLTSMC

[2] = biological target: T2, VIPR1 (Vasointestinal Peptide Receptor 1) (Homo sapiens, UniProt P32241); assay: DiscoverX cAMP Hunter eXpress VIPR1 CHO-K1 GPCR assay; assay type: cell-based; details: VIPR1 CHO-K1 cells
T2 construct: host or cells: CHO-K1 (cAMP Hunter eXpress VIPR1 CHO-K1 GPCR assay kit)
T2 sequence (P32241 31-457): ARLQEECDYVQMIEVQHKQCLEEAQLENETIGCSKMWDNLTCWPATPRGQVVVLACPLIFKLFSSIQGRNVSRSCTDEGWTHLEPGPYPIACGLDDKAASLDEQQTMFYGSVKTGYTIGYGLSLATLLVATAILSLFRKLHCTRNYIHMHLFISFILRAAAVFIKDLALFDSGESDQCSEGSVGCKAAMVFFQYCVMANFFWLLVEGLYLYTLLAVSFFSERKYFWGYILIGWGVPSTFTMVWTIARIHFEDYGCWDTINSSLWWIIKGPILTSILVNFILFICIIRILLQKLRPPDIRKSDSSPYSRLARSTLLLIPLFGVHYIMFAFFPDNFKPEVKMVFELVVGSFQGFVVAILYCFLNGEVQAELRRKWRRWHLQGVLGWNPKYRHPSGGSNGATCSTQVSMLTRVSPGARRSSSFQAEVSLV
From the text: DiscoverX cAmP Hunter eXpress VIPRI CHO-K1 GPCR and GHRHR CHO-K1 GPCR assays kits were used. The DiscoverX kits contain naturally coupled GPCR cell lines designed to detect GPCR signaling through second messenger activation. This signaling involves a membrane bound enzyme called adenylate cyclase. […] receptors modulate cAMP by either inhibiting or stimulating adenylate cyclase, respectively. The DiscoverX cell lines included in the kits utilize the natural coupling status of the GPCR to monitor activation of […] receptors. Following ligand stimulation, the functional status of the GPCR is monitored by measuring cellular cAMP levels using a homogeneous, gain of signal competitive immunoassay based on Enzyme Fragment Complementation (EFC). The amount of EFC is measured by analysis with a fluorescent plate reader.
On the day before the assay, the DiscoverX cell lines were defrosted, plated into 384 well plates and allowed to incubate overnight. All the samples were diluted to 2 mM using 100% DMSO. The vials were sonicated and centrifuged to assure all peptides went into solution. The final volumes were small, 80-200 μl. An 80% purity and peptide content was assumed for all samples and dilutions were based on the molecular weights. On the day of the assay, the samples were diluted to 200 μM in water and then to 4 μM in DiscoverX assay buffer (supplemented with 0.1% BSA). Serial dilutions were performed on assay day, 16 dilutions from 1000 nM were run side by side in duplicate for each peptide for study. The assays were performed in the 384 well plates with the assistance of a CyBio Bi-Well 384 channel liquid handling robot. The samples were analyzed on a Tecan Ultra Evolution plate reader according to DiscoverX guidelines. The EC50 values were determined using GraphPad Prism software. The EC50 value is defined as the concentration of agonist that provokes a response halfway between the baseline and maximum response.
DiscoverX™ cAmP Hunter eXpress VIPR1 CHO-K1 GPCR and GHRHR CHO-K1 GPCR assay kits were used. On the day before the assay, the DiscoverX™ cell lines were defrosted, plated into 384 well plates and allowed to incubate overnight. All the samples were diluted to 2 mM using 100% DMSO. The vials were sonicated and centrifuged to assure all peptides went into solution. The final volumes were small, 80-200 μl. An 80% purity and peptide content was assumed for all samples and dilutions were based on the molecular weights. On the day of the assay, the samples were diluted to 200 μM in water and then to 4 μM in DiscoverX™ assay buffer (supplemented with 0.1% BSA). Serial dilutions were performed on assay day, 16 dilutions from 1000 nM were run side by side in duplicate for each peptide for study. The assays were performed in the 384 well plates with the assistance of a CyBio™ Bi-Well 384 channel liquid handling robot. The samples were analyzed on a Tecan™ Ultra Evolution plate reader according to DiscoverX™ guidelines. The EC50 values were determined using GraphPad™ Prism software. The EC50 value is defined as the concentration of agonist that provokes a response halfway between the baseline and maximum response. (+=>25 nM; ++=>10-25 nM; +++=>1-10 nM; ++++=>0.1-1 nM; +++++=<0.1 nM). […]

GHRHR = biological target: T3, GHRHR (Homo sapiens, UniProt Q02643); assay: DiscoverX cAMP Hunter eXpress GHRHR CHO-K1 GPCR assay; assay type: cell-based; details: for Selectivity: EC50 in VIPR1 CHO-K1 cells divided by EC50 in GHRHR CHO-K1 cells; for EC50: GHRHR CHO-K1 cells, cAMP
T3 construct: host or cells: CHO-K1 (cAMP Hunter eXpress GHRHR CHO-K1 GPCR assay kit)
T3 sequence (Q02643 23-423): T1 sequence (Q02643 23-423)
Protocol: DiscoverX cAmP Hunter eXpress VIPRI CHO-K1 GPCR and GHRHR CHO-K1 GPCR assays kits were used. […] Following ligand stimulation, the functional status of the GPCR is monitored by measuring cellular cAMP levels using a homogeneous, gain of signal competitive immunoassay based on Enzyme Fragment Complementation (EFC). The amount of EFC is measured by analysis with a fluorescent plate reader.
DiscoverX™ cAmP Hunter eXpress VIPR1 CHO-K1 GPCR and GHRHR CHO-K1 GPCR assay kits were used. On the day before the assay, the DiscoverX™ cell lines were defrosted, plated into 384 well plates and allowed to incubate overnight. All the samples were diluted to 2 mM using 100% DMSO. The vials were sonicated and centrifuged to assure all peptides went into solution. The final volumes were small, 80-200 μl. An 80% purity and peptide content was assumed for all samples and dilutions were based on the molecular weights. On the day of the assay, the samples were diluted to 200 μM in water and then to 4 μM in DiscoverX™ assay buffer (supplemented with 0.1% BSA). Serial dilutions were performed on assay day, 16 dilutions from 1000 nM were run side by side in duplicate for each peptide for study. The assays were performed in the 384 well plates with the assistance of a CyBio™ Bi-Well 384 channel liquid handling robot. The samples were analyzed on a Tecan™ Ultra Evolution plate reader according to DiscoverX™ guidelines. The EC50 values were determined using GraphPad™ Prism software. The EC50 value is defined as the concentration of agonist that provokes a response halfway between the baseline and maximum response. […] The selectivity value is the concentration of agonist that provokes a response halfway between the baseline and maximum response in VIPR1 CHO-K1 cells divided by the concentration of agonist that provokes a response halfway between the baseline and maximum response in GHRHR CHO-K1 cells.

[3] = Solubility by measuring turbidity (OD600) in human plasma; assay type: physicochemical
Protocol: In some embodiments, a peptidomimetic macrocycle can be prepared based on solubility of the polypeptide, for example if the prepared peptidomimetic macrocycle is determined to be soluble based on visual examination of the turbidity of a solution of the polypeptide. In some embodiments, an aqueous solubility of the peptidomimetic macrocycle is determined by evaluating the turbidity of a solution comprising the peptidomimetic macrocycle. In some embodiments, a plasma solubility of the peptidomimetic macrocycle is determined by evaluating the turbidity of a solution comprising the peptidomimetic macrocycle.
Increasing amounts of SP-3 and SP-133 were added to human plasma. The OD600 of each of the solutions was then measured.

Compound	Plasma Compatability (Plasma compatibility)	EC50 [1]	EC50 [2]	Selectivity (GHRHR)	EC50 (GHRHR)	OD600 ([3]; 7 mg/mL)	OD600 ([3]; 10 mg/mL)	OD600 ([3]; 12 mg/mL)	OD600 ([3]; 16 mg/mL)	OD600 ([3]; 21 mg/mL)	OD600 ([3]; 27 mg/mL)	OD600 ([3]; 35 mg/mL)	OD600 ([3]; 46 mg/mL)	OD600 ([3]; 59 mg/mL)	OD600 ([3]; 77 mg/mL)	OD600 ([3]; 100 mg/mL)	turbidity ([3]; up to 100 mg/mL)
CCCC[C@H](NC(=O)[C@@H](NC(=O)[C@H](CC(=O)O)NC(=O)[C@H](CCC(N)=O)NC(=O)[C@H](CC(C)C)NC(=O)[C@H](C)NC(=O)[C@H](CCCCN)NC(=O)[C@H](CCCNC(=N)N)NC(=O)[C@H](C)NC(=O)[C@H](CO)NC(=O)[C@]1(C)CCCC=CCCC[C@](C)(NC(=O)[C@H](CCCCN)NC(=O)[C@H](CCCNC(=N)N)NC(=O)[C@H](Cc2ccc(O)cc2)NC(=O)[C@H](CO)NC(=O)[C@H](C)NC(=O)[C@@H](NC(=O)[C@H](Cc2ccccc2)NC(=O)[C@@H](NC(=O)[C@H](C)NC(=O)[C@H](CC(=O)O)NC(=O)[C@H](C)NC(=O)[C@H](Cc2ccc(O)cc2)NC)[C@@H](C)CC)[C@@H](C)O)C(=O)N[C@@H](CC(C)C)C(=O)N[C@@H](C)C(=O)N[C@@H](CCC(N)=O)C(=O)N1)[C@@H](C)CC)C(=O)N[C@@H](CO)C(=O)N[C@@H](CCCNC(=N)N)C(N)=O [SP-12] (H-[NMeY]ADAIFTASYRK[S5]LAQ[S5]SARKALQDI[Nle]SR-NH2; staple 13-17)	1.6 mg/mL	≤ 1 nM	< 0.1 nM	+ (+=<5)	< 0.1 nM	–	–	–	–	–	–	–	–	–	–	–	–
CCCC[C@H](NC(=O)[C@@H](NC(=O)[C@]1(C)CCCC=CCCC[C@](C)(NC(=O)[C@H](CCCNC(=N)N)NC(=O)[C@H](C)NC(=O)[C@H](CO)NC(=O)[C@H](CC(C)C)NC(=O)[C@H](CCC(N)=O)NC(=O)CNC(=O)[C@H](CC(C)C)NC(=O)[C@@H](NC(=O)[C@H](CCCCN)NC(=O)[C@H](CCCNC(=N)N)NC(=O)[C@H](Cc2ccc(O)cc2)NC(=O)[C@H](CO)NC(=O)[C@]2(C)CCCC=CCCC[C@](C)(NC(=O)[C@H](CC(=O)O)NC(=O)[C@@H](C)NC(=O)[C@@H](N)Cc3ccc(O)cc3)C(=O)N[C@@H]([C@@H](C)CC)C(=O)N[C@@H](Cc3ccccc3)C(=O)N[C@@H]([C@@H](C)O)C(=O)N2)C(C)C)C(=O)N[C@@H](CC(C)C)C(=O)N[C@@H](CC(C)C)C(=O)N[C@@H](CCC(N)=O)C(=O)N1)[C@@H](C)CC)C(=O)N[C@@H](CO)C(=O)N[C@@H](CCCNC(=N)N)C(N)=O [SP-3] (H-Y[dA]D[S5]IFT[S5]SYRKVLGQLSAR[S5]LLQ[S5]I[Nle]SR-NH2; staple 4-8, 21-25)	0.9 mg/mL	1 to 10 nM	10 to 25 nM	+++++ (+++++=>50)	0.1 to 1 nM	0.8	1.0	1.2	1.2	1.4	1.6	1.6	1.7	1.8	1.7	1.5	–
SP-133: GHRH peptidomimetic macrocycle (YADAIFTASYRKALAQASARKALQDILSR; not fully specified; D-residues; non-natural residues; cyclised or stapled)	>10 mg/mL	–	> 25 nM	++ (++=>5-15)	1 to 10 nM	0.0	0.0	0.0	0.0	0.0	0.0	0.0	0.0	0.0	0.0	0.0	no turbidity
